# Laboratory results: paper PMC11645267, “Novel pharmacologic inhibition of lysine-specific demethylase 1 as a potential therapeutic for glioblastoma” (Cancer Gene Therapy, 2024)
# Key:
# Type in all cases: cell-based
# [1] = tested on: KINGS1 and F3 cells; assay: PARP cleavage (apoptosis) by western blot; settings: KINGS1 and F3, 5 μM
# Excerpt: Super-enhancers consist of enhancer clusters with abundant binding of transcription factors and are highly enriched with H3K27ac marks. The H3K4me2 increased regions included the MYC locus and H3K4me2 de novo regions comprised Nestin and SOX2 loci (Fig. 2F, Supplementary Fig. S5A). These regions were also identified as super-enhancers in GSCs using data from our previous study (Fig. 2F). Compared to the large increase in H3K4me2 in these regions, changes in H3K4me3 were subtle after S2172 treatment (only 2582 regions were acquired modification) (Fig. 2C). Increasing the me2/me3 ratio at H3K4 is associated with reduced gene expression.
# Supplementary Figure. S3 Shinjo K. et al […]
# B. Western blot analysis of LSD1,MYC, Nestin, SOX2,and ACTB in same cells as shown in panel A. ACTB was used as a loading control. […] Quantification of signal intensities of the Western blot (right panel). […] Right panel: Quantification of band signal intensities from the Western blot. […] The ratio was calculated by dividing the cleaved PARP band intensity by the full-length PARP band intensity. […]
# A. Left panel: Western blot analysis of H3K4me1, H3K4me2, H3K4me3, and H3K9me2 after treatment with either DMSO or S2172 5μM for 96 h in normal neural stem cell F3 . […] Right panel: Quantification of signal intensities of the Western blot. […]
# C. […] Right panel: Quantification of band signal intensities from the Western blot. […]
# [2] = tested on: GSC222; assay: Cell proliferation assay (CellTiter-Glo 3D); settings: GSC222, 96 h; read-out: Growth inhibitory IC50 (GI50)
# Description: (§1) Supplementary materials and methods […]
# (§2) Cell lines and culture conditions […]
# (§3) 2013 #1009}{Katsushima, 2016 #1156}. GSC cells were cultured in Neurobasal Medium (Life Technologies, Carlsbad, CA, USA) containing N2 and B27 supplements (Life Technologies) along with human recombinant basic fibroblast growth factor and epidermal growth factor (20 ng/ml each; R&D Systems, Minneapolis, MN, USA). Cells were cultured at 37°C in a humidified incubator with 5% CO2.
# (§4) For the cell proliferation assay, cells at a density of 1 × 10^5 cells per well were seeded before treatment with LSD1 inhibitors. Cell proliferation was measured after 4 days using a Cell Counting Kit 8 (Dojindo, Kumamoto, Japan) according to the manufacturer ’s […]
# (§5) instructions. For GSC cells, the CellTiter-Glo 3D Viability Assay (Promega, Madison, WI, USA) was used to measure the living cells. […]
# [3] = tested on: GSC316; assay: Cell proliferation assay (CellTiter-Glo 3D); settings: GSC316, 96 h; read-out: Growth inhibitory IC50 (GI50)
# Description: as §1, §2, §3, §4, §5
# [4] = tested on: GSC1228; assay: Cell proliferation assay (CellTiter-Glo 3D); settings: GSC1228, 96 h; read-out: Growth inhibitory IC50 (GI50)
# Description: as §1, §2, §3, §4, §5
smiles,measurement,setting,value
NC1CCC(NC2CC2c2cc(F)cc(F)c2OCc2ccccc2)CC1 (stereo not shown) [S2172],cleaved-PARP levels,[1],not significantly increased
same,IC50,[2],17 µM
same,IC50,[3],12 µM
same,IC50,[4],12.5 µM
